As a reminder, the chromatographic logP is lipophilicity estimated from chromatographic retention. A low value points to lower lipophilicity. A word on the logP: it is the decadic logarithm of the partition coefficient of the neutral form, usually between octanol and water. A lower logP goes with lower lipophilicity.

Data set [1] relates to Mycosphaerella fijiensis. The data set is described as follows: Control of Black Sigatoka on banana crop, field trials. The class given is in vivo. To be noted: for Number healthy Leaves 25DAT13: Trial B, untreated 8.7; for Number healthy Leaves 25DAT13 / Number healthy Leaves 2DAT7: per banana plant at end of trial; for Number healthy Leaves 2DAT7: Trial A, untreated 8.5. How it is done: Two field trials were implemented in 2013 in Costa Rica and Philippines to evaluate the performance of compounds against Mycosphaerella fijiensis infection on Banana.
A typical fungicide formulation containing 100 g of compound per liter was applied every 7 to 12 days in consecutive foliar sprays. The trials were carried out according to standard experimental practice with spay adjuvant and mineral oil used in tank mix as it is usual on banana plantation in each country.
Data are expressed in Number of healthy leaves present at the end of the trial on each Banana plant (more leaves present mean better quantity and quality of harvest).

Data set [2] relates to Guignardia citricarpa. The data set is described as follows: Control of black spot (Guignardia citricarpa) on citrus crop, field trials. Format: in vivo. To be noted: 2000 to 3000 L/Ha. From the text: (§1) Five field trials were implemented in South Africa, Brazil and Japan in 2013 and 2014 to evaluate the performance of compounds against two main diseases having high effect on marketable yield: Elsinoe fawcettii and Guignardia citricarpa are hosted by many citrus species. Both are able to infest fruits and both are quarantine pathogens limiting the exportation outside of the growing countries. The protection against these two pathogens gives a clear advantage for farmers to be present on the export market.
(§2) The trials were carried out according to standard experimental practice to protect the canopy including fruits in each country. A typical fungicide formulation containing 100 g of compound per liter was applied in consecutive foliar sprays at 5 to 6 occasions every month to control black spot and at 1 to 3 occasions every 14 days to control Scab infections. Spray volumes vary from 2000 L to 3000 L/Ha.

Data set [3] has as its system Hemileia vastatrix. The data set can be described thus: Control of rust (Hemileia vastatrix) on coffee crop, field trials. Format: in vivo. To be noted: 50 g a.i./ha, coffee leaves, foliar sprays, vs untreated. The procedure:
Four field trials were implemented in Brazil in 2013 and 2014 to evaluate the performance of compounds against Hemileia vastatrix on Coffee.
The trials were carried out according to standard experimental practice to protect the canopy from the rust, responsible to defoliation and then yield losses. A typical fungicide formulation containing 100 g of compound per liter was applied in consecutive foliar sprays at 3 occasions every 30 to 50 days in most of the trials. Spray volumes vary from 400 L to 500 L/Ha.
Assessments were realized on leaves—Data are expressed in % efficacy against rust on leaves compared to untreated plants.

For data set [4], the system named is Elsinoe fawcettii. The data set can be described thus: Control of scab (Elsinoe fawcettii) on citrus crop, field trials. The class given is in vivo. The note with it: 3000 L/Ha.
Source text: as §1, §2

A short description of data set [5]: log P determination by HPLC on reversed-phase column (EEC Directive 79/831 Annex V.A8). Format: physicochemical. The procedure:
In table 1, the log P values were determined in accordance with EEC Directive 79/831 Annex V.A8 by HPLC (High Performance Liquid Chromatography) on a reversed-phase column (C 18), using the method described below:
Temperature: 40° C.; Mobile phases: 0.1% aqueous formic acid and acetonitrile; linear gradient from 10% acetonitrile to 90% acetonitrile.
Calibration was carried out using unbranched alkan-2-ones (comprising 3 to 16 carbon atoms) with known log P values (determination of the log P values by the retention times using linear interpolation between two successive alkanones). lambda-max-values were determined using UV-spectra from 200 nm to 400 nm and the peak values of the chromatographic signals.

As for `O=C(Nc1ccccc1-c1ccc(Cl)cc1)c1cccnc1Cl` [Boscalid, reference compound], the “Number healthy Leaves 25DAT13” value in data set [1] (150 g a.i./ha) amounted to 13.1.

For `CC(C)c1ccc(Cl)cc1CN(C(=O)c1c(C(F)F)nn(C)c1F)C1CC1` [Compound A5, N-(5-chloro-2-isopropylbenzyl)-N-cyclopropyl-3-(difluoromethyl)-5-fluoro-1-methyl-1H-pyrazole-4-carboxamide], the “average gain in leaves per plant” value in data set [1] (6.25 g ai/ha, banana, Black Sigatoka) is given as “about +3 leaves per plant”. Moreover, the “Number healthy Leaves 2DAT7” value in data set [1] (6.25 g a.i./ha) is on record as 11.5; in data set [1] (12.5 g a.i./ha), 12.2; in data set [1] (25 g a.i./ha) it was 12. The figures for the “Number healthy Leaves 25DAT13” value in data set [1] (6.25 g a.i./ha), in data set [1] (12.5 g a.i./ha) and in data set [1] (25 g a.i./ha) were 13.4, 14.4 and 16.2, respectively. The “% Efficacy (Abbott)” value in data set [2] (Trial A, 10 g a.i./100 L) came out at 73%; in data set [2] (Trial A, 15 g a.i./100 L), 70%; in data set [2] (Trial B, 10 g a.i./100 L), 72%; in data set [2] (Trial B, 15 g a.i./100 L), 83%; in data set [2] (Trial C, 10 g a.i./100 L) it was 91.3%; in data set [2] (Trial C, 15 g a.i./100 L), 93.9%. Moreover, the “% Efficacy (Abbott)” value was found to be 84% in data set [3] (Trial A); 61% in data set [3] (Trial B); 95% in data set [3] (Trial C); 73% in data set [3] (Trial D); 96% in data set [4] (Trial A, 2.5 g a.i./100 L); 95% in data set [4] (Trial A, 5 g a.i./100 L). Moreover, the “% Efficacy (Abbott)” value in data set [4] (Trial B, 2.5 g a.i./100 L) is on record as 92%; in data set [4] (Trial B, 5 g a.i./100 L), 70%.

In turn, `CCc1ccc(F)cc1CN(C(=O)c1c(C(F)F)nn(C)c1F)C1CC1` [Compound A6, N-cyclopropyl-3-(difluoromethyl)-N-(2-ethyl-5-fluorobenzyl)-5-fluoro-1-methyl-1H-pyrazole-4-carboxamide] showed a chromatographic logP in data set [5] (reversed-phase C18 HPLC column, HPLC, reversed-phase C 18, 40° C., 0.1% aqueous formic acid and acetonitrile gradient) of 3.14.

In data set [5], “N-cyclopropyl-3-(difluoromethyl)-5-fluoro-N-(2-isopropylbenzyl)-1-methyl-1H-pyrazole-4-carbothio-amide [Compound A20]” showed a logP of 4.36.
